The record followed here is ChEMBL document CHEMBL1201862, “PubChem BioAssay data set” (2004).

The target of test [1] is Dual specificity tyrosine-phosphorylation-regulated kinase 1A (Rattus norvegicus, UniProt Q63470). In kind it is biochemical, Homo sapiens.
Test [2] has as its target T1, Aminopeptidase N (Plasmodium falciparum FcB1/Columbia, UniProt O96935).
T1 sequence (O96935 whole entry): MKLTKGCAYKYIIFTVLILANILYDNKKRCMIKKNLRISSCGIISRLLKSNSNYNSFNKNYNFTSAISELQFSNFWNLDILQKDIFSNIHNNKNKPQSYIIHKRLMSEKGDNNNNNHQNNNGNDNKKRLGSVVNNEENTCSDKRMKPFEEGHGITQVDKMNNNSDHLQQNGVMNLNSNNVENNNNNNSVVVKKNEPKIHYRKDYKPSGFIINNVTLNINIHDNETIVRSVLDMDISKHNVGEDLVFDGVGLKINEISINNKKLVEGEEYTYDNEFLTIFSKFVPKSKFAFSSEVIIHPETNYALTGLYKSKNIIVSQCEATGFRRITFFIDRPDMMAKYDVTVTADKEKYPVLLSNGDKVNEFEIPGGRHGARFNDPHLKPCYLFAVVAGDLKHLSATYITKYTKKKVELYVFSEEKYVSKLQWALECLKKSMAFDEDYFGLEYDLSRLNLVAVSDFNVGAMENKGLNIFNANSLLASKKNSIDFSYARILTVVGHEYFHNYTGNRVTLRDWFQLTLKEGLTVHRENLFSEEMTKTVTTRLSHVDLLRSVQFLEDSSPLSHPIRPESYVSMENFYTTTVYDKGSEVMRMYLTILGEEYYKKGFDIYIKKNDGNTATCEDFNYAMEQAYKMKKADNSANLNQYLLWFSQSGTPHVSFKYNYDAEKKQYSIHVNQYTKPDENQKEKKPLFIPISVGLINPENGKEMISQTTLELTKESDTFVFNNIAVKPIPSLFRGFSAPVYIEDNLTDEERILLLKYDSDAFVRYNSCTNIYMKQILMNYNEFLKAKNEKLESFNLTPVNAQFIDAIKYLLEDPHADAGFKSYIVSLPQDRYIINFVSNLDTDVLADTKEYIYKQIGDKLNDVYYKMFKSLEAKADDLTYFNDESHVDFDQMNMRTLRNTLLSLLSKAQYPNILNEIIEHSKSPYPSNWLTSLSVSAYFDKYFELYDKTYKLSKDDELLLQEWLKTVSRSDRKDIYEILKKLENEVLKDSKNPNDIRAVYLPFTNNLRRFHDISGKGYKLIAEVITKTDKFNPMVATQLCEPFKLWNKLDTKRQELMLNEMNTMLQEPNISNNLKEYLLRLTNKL
Put plainly: P. falciparum M1AAP inhibitors, biochemical, fluorogenic H-Leu-NHMec substrate, 1536-well (AID 1445). Details: species or system Plasmodium falciparum 3D7, 3D7.

Test [3] is described as follows: cells.
Test [4] is described as follows: cytotoxicity in HEK-293T cells, dose response, cytotoxicity control for BCR NF-kB inhibitor project, luminescence, B-cell screen hits (AID 489021).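 Also: HEK-293T cells carrying an NF-kB luciferase reporter; cells exposed to compound for about 14 hours before viability readout.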 In kind it is functional, cell-based.
Test [5] in a line: A cytotoxicity screen of small molecule inhibitors of the PhoP region in Salmonella typhi identified in the primary screen. [Related pubchem assays: 1850, 1864, 1985 ]. The format is functional.
For test [6], the target named is Glyceraldehyde-3-phosphate dehydrogenase (Homo sapiens, UniProt P04406).
The target of test [7] is T2, High affinity choline transporter 1 (Homo sapiens, UniProt Q9GZV3).
T2 sequence (Q9GZV3 whole entry): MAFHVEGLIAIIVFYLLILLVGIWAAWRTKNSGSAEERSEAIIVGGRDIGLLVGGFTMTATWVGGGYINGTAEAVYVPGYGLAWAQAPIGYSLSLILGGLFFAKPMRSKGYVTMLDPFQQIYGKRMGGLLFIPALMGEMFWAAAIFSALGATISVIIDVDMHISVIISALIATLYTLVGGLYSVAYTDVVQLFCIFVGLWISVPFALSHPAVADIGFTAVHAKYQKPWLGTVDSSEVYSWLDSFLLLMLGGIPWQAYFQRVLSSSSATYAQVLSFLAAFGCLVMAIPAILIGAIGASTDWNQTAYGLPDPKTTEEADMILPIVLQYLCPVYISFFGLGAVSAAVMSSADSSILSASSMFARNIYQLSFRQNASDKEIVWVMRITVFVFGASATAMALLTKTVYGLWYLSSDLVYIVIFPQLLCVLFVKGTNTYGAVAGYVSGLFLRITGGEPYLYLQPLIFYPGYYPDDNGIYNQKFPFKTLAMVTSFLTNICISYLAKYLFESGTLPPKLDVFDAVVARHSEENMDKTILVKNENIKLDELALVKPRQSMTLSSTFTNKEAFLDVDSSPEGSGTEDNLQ
Kind of test: CHT inhibitors, dose response, cell-based, 5-point CRC, membrane potential dye (AID 504840). The format is functional.

Test [8] in a line: HEp-2 cell cytotoxicity, dose response, cytotoxicity control for RSV inhibitor project, HTS (AID 2410). To be noted: human respiratory syncytial virus. The format is functional.
Test [9] concerns Streptococcus. Put plainly: Group A Streptococcus viability loss, dose response, counter-screen for streptokinase expression inhibitor project, luminescence, BacTiterGlo (AID 1915).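 Also: potency for reduction of bacterial viability or growth.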 The format is functional, organism-based.
For test [10], the system named is Streptococcus sp. 'group A'. Put plainly: growth inhibition of control SK(-) GAS strain, dose response, counter-screen for streptokinase expression inhibitor project, luminescence, kanamycin, BacTiterGlo, confirmation (AID 1900). In kind it is functional, organism-based.
Test [11] concerns the target T3, Streptokinase A (Streptococcus pyogenes serotype M1, UniProt P10520).
T3 sequence (P10520 whole entry): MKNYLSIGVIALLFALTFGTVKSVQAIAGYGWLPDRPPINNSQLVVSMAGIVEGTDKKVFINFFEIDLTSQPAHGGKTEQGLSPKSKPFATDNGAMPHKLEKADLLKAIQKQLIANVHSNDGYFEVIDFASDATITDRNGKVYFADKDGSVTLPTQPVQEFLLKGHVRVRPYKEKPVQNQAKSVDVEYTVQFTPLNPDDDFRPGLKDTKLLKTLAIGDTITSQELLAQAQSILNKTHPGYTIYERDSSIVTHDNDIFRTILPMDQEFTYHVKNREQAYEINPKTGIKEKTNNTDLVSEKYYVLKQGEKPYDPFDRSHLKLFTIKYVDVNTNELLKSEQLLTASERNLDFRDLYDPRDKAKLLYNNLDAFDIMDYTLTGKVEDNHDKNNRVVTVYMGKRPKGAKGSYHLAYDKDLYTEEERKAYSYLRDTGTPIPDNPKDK
Kind of test: S. pyogenes streptokinase expression inhibitors, potency, dose response, plasminogen activation absorbance, OD405 (AID 1914).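 Also: secreted streptokinase activity via plasminogen activation per viability signal from cell pellet.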 The format is functional, Streptococcus pyogenes M1 GAS.

Test [12] addresses T4, Lysine-specific demethylase 4C (Homo sapiens, UniProt Q9H3R0).
T4 sequence (Q9H3R0 whole entry): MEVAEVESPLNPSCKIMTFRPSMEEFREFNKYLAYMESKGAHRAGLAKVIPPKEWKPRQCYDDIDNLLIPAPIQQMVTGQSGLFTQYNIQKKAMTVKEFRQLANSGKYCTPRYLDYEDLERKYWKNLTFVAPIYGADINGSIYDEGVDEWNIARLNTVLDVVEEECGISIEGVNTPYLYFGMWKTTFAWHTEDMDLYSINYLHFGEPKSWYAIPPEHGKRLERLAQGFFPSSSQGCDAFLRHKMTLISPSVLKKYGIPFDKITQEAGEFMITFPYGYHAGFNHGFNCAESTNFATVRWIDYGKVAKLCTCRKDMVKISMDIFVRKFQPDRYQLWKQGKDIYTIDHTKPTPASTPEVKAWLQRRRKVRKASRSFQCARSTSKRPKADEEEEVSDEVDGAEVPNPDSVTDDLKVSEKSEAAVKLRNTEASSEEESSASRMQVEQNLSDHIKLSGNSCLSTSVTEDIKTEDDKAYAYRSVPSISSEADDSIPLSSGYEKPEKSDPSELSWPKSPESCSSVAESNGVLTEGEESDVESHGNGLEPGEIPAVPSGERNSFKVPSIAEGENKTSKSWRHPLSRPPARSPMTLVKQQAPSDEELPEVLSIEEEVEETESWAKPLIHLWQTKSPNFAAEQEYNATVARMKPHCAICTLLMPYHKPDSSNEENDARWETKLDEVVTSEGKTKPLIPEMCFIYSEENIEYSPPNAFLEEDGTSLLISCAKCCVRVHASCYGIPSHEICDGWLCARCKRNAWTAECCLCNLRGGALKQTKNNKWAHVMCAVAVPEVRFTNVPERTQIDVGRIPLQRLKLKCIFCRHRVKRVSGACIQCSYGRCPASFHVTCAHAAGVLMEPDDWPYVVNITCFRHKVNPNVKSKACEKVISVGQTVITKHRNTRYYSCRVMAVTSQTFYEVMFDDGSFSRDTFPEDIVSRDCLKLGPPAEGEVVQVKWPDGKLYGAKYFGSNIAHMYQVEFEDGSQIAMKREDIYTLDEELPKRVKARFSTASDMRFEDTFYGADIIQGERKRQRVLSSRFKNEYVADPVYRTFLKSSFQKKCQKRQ
Kind of test: GASC-1 (JMJD2C) histone demethylase inhibitors, dose response, biochemical, DELFIA europium, cherry-picked samples (AID 488835). In kind it is functional.

Test [13] has as its target T5, Leucine aminopeptidase (Plasmodium falciparum 3D7, UniProt Q8IL11).
T5 sequence (Q8IL11 whole entry): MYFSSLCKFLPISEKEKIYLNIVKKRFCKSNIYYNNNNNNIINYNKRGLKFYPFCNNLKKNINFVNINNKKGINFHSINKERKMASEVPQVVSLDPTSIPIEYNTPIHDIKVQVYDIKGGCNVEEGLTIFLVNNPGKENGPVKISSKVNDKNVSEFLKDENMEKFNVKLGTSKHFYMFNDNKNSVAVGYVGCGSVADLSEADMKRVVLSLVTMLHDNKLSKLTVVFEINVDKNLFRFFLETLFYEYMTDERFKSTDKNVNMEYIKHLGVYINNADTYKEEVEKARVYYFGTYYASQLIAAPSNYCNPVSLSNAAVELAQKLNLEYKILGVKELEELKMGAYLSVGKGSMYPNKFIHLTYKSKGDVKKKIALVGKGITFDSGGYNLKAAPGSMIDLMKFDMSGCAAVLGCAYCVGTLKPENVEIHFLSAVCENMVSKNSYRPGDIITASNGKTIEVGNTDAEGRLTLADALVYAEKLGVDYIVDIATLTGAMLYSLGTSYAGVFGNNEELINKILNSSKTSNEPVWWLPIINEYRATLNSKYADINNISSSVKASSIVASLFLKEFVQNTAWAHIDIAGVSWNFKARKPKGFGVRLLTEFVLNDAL
Put plainly: P. falciparum M17LAP inhibitors, primary screen, biochemical, fluorogenic H-Leu-NHMec substrate, 1536-well (AID 1619). In kind it is functional.

The target of test [14] is Large T antigen (Simian virus 40, UniProt P03070). In kind it is functional, Betapolyomavirus macacae.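 Also: Confirmatory-stage PubChem screen for compounds that inhibit SV40 T antigen.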

Structures are written as SMILES. The source made the active and inactive calls.

Glyceraldehyde-3-phosphate dehydrogenase, sequence (P04406 whole entry): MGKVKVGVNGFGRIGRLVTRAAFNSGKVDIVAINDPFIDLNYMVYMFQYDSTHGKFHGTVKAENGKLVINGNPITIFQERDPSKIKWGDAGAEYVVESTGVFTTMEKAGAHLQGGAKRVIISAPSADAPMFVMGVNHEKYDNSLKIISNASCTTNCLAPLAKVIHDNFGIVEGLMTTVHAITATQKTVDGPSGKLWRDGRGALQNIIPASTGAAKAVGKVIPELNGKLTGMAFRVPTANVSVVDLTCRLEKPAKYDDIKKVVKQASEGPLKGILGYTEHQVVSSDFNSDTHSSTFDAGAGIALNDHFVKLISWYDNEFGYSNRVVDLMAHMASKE
Large T antigen, sequence (P03070 whole entry): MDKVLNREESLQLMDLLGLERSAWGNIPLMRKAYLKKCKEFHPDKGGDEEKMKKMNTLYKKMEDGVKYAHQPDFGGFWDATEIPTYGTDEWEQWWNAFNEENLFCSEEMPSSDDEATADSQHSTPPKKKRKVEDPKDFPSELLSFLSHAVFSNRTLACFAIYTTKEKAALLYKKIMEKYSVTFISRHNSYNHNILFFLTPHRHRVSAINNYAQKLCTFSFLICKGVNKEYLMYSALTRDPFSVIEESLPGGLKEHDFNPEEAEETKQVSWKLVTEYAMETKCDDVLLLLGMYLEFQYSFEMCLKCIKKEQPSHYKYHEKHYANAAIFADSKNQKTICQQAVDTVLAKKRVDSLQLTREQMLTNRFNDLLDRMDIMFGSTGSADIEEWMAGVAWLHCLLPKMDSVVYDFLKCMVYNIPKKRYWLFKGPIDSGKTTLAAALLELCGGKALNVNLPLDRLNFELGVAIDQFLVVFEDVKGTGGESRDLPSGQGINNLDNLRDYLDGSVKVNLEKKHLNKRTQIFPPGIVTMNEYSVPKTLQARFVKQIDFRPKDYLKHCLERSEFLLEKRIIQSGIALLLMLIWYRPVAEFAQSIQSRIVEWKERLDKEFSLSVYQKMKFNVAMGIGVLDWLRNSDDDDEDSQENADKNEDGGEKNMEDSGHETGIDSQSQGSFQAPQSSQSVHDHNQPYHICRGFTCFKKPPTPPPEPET

As to `COc1ccc2cc3cc(C(=O)NCC4CCCO4)oc3nc2c1` (centres undefined), the concentration at half-maximal activity (AC50) (in general, the concentration at which the activity in the assay is half-maximal) in test [1] was 7.86 µM (active). Besides, in test [2], the IC50 (commonly the concentration that gives 50% inhibition) was 79.3 µM (active).

On to `COC(=O)Cc1cc(=O)oc2cc(O)ccc12`, for which, in test [2], the IC50 was 36.6 µM (active).

Turning to `COc1ccc2[nH]cc(C(=O)CN3CCN(C4CCCCC4)CC3)c2c1`, in test [3], the IC50 is 36.6 µM (active).

For the compound `C/C(=N\Nc1nc(Nc2ccccc2)nc(N2CCOCC2)n1)c1cccs1`, in [4], the IC50 is > 80 µM (inactive).

Turning to `COc1cc2[nH]c(=S)n(CC3CCCO3)c(=O)c2cc1OC` (centres undefined), in test [5], the EC50 – broadly, the concentration that produces a half-maximal response – was > 50 µM (active).

For the compound `CC(=O)Oc1ccc(-c2cccc(C(=O)NCC(=O)O)c2)cc1`, in test [6], the IC50 was > 100 µM (not active).

`O=C(CN1C2=NCCCN2c2ccccc21)c1ccc2c(c1)OCO2`: in test [5], the EC50 was > 50 µM (active).

As for `Cc1cc(CN(C)C(=O)c2cc(COc3ccc(F)cc3Cl)on2)n[nH]1`, the IC50 is 9.89 µM (active) in test [7] and 24.6 µM (active) in test [3]. The CC50 (in general, the concentration giving 50% cytotoxicity) in [8] is 39.1 µM (active).

Regarding `N#CC(C(=O)C12CC3CC(CC(C3)C1)C2)c1nc2ccccc2[nH]1` (centres undefined), the EC50 in test [9] was > 150 µM (not active); in test [10], 5.14 µM (active); in test [11], 66 µM (active); in test [5] it was > 50 µM (active).

`CC(=O)c1cc2c(O)c(O)ccc2o1`: in [12], the half-maximal activity concentration (AC50) is 9.2 µM (active). Moreover, the values for the IC50 in test [13] and in test [14] were 75.4 µM (active) and 18.5 µM (active), respectively.

Turning to `CCOc1ccc(NC(S)=Nc2cc(C)[nH]n2)cc1`, in test [5], the EC50 was > 50 µM (active).

Regarding `CCOc1ccc(N2C(=O)C(CC(=O)Nc3ccc(F)cc3)N(Cc3ccccn3)C2=S)cc1` (centres undefined), the IC50 in [3] is 23.9 µM (active). Besides, the CC50 in [8] was 32.9 µM (active).

In the case of `COc1cc(/C=N/NC(=O)COc2c(C)cc([N+](=O)[O-])cc2C)ccc1OC(=O)c1ccccc1`, the IC50 in test [3] was 17.9 µM (active). In test [8], the CC50 was 41.7 µM (active).

As to `COc1ccc(-c2csc3nc(-c4cccnc4)nc(N4CCC(C(N)=O)CC4)c23)cc1OC`, the IC50 in test [4] was 43.7 µM (inactive).
